Source: patent US20040106216A1, “Method of measuring drug-metabolizing enzyme activity, method of evaluating inhibition of drug-metabolizing enzyme activity, and composition for these methods” (Toyo Boseki Kabushiki Kaisha, priority 2002, published 2004)
Numbering of substitutions follows the chain as printed.

Tests used:
[1] = tested on: Pseudomonas-derived 17β-hydroxysteroid dehydrogenase; assay: Inhibition of 17β-hydroxysteroid dehydrogenase, estrone substrate, estradiol enzyme immunoassay; type: biochemical; settings: 0-20 μM final concentration, FIG. 8
[2] = target: human cytochrome P450 CYP2C9 (359Ile) (Homo sapiens, UniProt P11712)
Protocol: (§1) Purified anti-fluorescein antibodies obtained using as the antigen a protein cross-linked using the X position of fluorescein were diluted with 50 mM carbonic acid buffer (pH 9.6) to a concentration of 1 μg/ml (antibody adsorption liquid), and 100 μL per well was poured into Corning Costar microtiter plates (polystyrene 96-well type). The surfaces were then sealed, and the plates left overnight at 4° C. The following day the antibody adsorption liquid was removed, and each well washed 3 times with 200 μL of 10 mM phosphoric acid buffer (pH 7.2, containing 150 mM NaCl). After washing, using 10 mM phosphoric acid buffer (pH 7.2, containing 150 mM NaCl: phosphoric acid buffer 1) as the base, each well was filled with 200 μL of a blocking solution containing 0.2% casein and 10% sucrose. After being filled with the blocking liquid the plates were left overnight at 4° C., and the following day the blocking liquid was removed and vacuum drying applied for 16 hours. The vacuum-dried plates were sealed in storage bags under reduced pressure, and stored at 4° C. prior to the following measurements.
(§2) A system expressing human cytochrome P450 CYP2C9 was constructed according to the methods of Goldstein et al (Goldstein J. A. et al, Biochemistry Vol. 33 pp 1743-1752 (1994)). A single nucleotide mutation (A→C) replacing isoleucine at 359 position with leucine was then introduced by ordinary methods. Two types of enzyme preparations, human cytochrome P450 CYP2C9 (359Ile) and (359Leu), were prepared by methods described in the literature and used in the following experiment.
(§3) The two human cytochrome P450 CYP2C9 preparations were diluted with 100 mM phosphoric acid buffer (pH 7.2, containing 0.1% BSA: phosphoric acid buffer 2), and concentrations sequences prepared. […]

[3] = target: human cytochrome P450 CYP2C9 (359Leu) (Homo sapiens, UniProt P11712, I359L); settings: 30 μM dibenzylfluorescein; 0-1.2 μM final concentration; FIG. 20
Protocol: as §1, §2, §3

[4] = target: T1, human cytochrome P450 CYP19 (Homo sapiens, UniProt P11511); assay: Inhibition of human cytochrome P450 CYP19 (aromatase), testosterone substrate, estradiol enzyme immunoassay; type: biochemical; settings: 62.5 μM testosterone, 20 minutes at 37° C.; α-naphthoflavone 0-3.2 μM, aminoglutethimide 0-9 μM final concentration; FIG. 6, 7
T1 construct: purchased BD Science (Gentest)
T1 sequence (P11511 1-503): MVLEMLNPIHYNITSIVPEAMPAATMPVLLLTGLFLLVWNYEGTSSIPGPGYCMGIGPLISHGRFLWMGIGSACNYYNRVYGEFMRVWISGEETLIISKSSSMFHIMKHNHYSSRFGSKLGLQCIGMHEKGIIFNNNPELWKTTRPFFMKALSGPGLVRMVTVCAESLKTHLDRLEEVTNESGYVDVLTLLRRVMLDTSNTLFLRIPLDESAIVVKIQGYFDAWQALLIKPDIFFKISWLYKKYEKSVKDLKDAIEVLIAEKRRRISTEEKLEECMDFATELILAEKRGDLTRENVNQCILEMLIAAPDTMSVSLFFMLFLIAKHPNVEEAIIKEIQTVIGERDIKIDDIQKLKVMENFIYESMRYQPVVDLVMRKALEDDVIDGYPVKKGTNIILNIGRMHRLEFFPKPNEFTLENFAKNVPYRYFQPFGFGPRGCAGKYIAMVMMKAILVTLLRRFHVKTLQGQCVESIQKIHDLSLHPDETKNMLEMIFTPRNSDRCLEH
Protocol: as §1, with “The” for “Purified anti-fluorescein antibodies obtained using as the antigen a protein cross-linked using the X position of fluorescein were diluted with 50 mM carbonic acid buffer (pH 9.6) to a concentration of 1 μg/ml (antibody adsorption liquid), and 100 μL per well was poured into Corning Costar microtiter plates (polystyrene 96-well type). The”

[5] = target: T2, pig cytochrome P450 CYP19 (133Ile) (Sus scrofa, UniProt P79430); assay: Inhibition of pig cytochrome P450 CYP19 (133Ile), testosterone substrate, estradiol enzyme immunoassay; type: biochemical
T2 construct: made in house
T2 sequence (P79430 1-503): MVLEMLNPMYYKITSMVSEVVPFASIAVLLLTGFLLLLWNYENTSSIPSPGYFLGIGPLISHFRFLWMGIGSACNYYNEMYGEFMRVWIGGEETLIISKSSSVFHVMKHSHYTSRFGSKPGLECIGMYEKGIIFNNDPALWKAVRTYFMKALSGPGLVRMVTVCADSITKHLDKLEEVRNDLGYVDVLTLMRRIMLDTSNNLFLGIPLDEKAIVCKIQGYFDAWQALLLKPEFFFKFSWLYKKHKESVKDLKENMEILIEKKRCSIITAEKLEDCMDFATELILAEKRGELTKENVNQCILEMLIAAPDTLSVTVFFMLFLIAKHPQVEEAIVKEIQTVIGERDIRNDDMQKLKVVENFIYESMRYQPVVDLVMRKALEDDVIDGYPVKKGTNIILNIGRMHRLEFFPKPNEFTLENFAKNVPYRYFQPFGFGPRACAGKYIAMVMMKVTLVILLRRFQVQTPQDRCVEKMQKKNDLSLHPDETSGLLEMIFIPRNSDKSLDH
Protocol: as §1, with “Purified anti-estradiol” for “Purified anti-fluorescein”, “the 3rd” for “the X”, “of estradiol” for “of fluorescein”, “diluted in” for “diluted with”, “10% saccharose.” for “10% sucrose.”
(§4) A placental system expressing pig cytochrome P450 CYP19 was prepared according to the methods described in Mol. Endocrinol. Vol. 16, pp 1456-1468 (2002), and a mutation introduced replacing isoleucine 133 with methionine or alanine according to ordinary methods. […]

[6] = target: T3, pig cytochrome P450 CYP19 (133Met) (Sus scrofa, UniProt P79430, I133M); assay: Inhibition of pig cytochrome P450 CYP19 (133Met), testosterone substrate, estradiol enzyme immunoassay; type: biochemical; settings: 62.5 μM testosterone; 0-3.2 μM final concentration; FIG. 16
T3 construct: made in house
T3 sequence (P79430 1-503 I133M): T2 sequence (P79430 1-503) with I133M
Protocol: as §1, with “Purified anti-estradiol” for “Purified anti-fluorescein”, “the 3rd” for “the X”, “of estradiol” for “of fluorescein”, “diluted in” for “diluted with”, “10% saccharose.” for “10% sucrose.”
as §4

Chain of human cytochrome P450 CYP2C9 (359Ile) (P11712 whole entry): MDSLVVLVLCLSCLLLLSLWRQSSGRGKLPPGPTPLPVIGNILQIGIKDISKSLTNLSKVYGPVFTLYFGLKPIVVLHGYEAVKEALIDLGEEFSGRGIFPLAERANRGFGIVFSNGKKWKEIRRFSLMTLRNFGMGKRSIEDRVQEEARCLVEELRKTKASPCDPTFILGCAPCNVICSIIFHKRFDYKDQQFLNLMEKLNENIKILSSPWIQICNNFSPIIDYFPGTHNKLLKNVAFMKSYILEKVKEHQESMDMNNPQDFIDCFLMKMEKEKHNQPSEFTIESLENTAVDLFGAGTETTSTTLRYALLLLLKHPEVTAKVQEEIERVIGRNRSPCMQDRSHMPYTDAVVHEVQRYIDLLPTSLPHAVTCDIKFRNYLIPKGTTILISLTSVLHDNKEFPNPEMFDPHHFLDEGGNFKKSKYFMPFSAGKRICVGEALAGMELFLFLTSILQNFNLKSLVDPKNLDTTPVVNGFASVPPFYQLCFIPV
Chain of human cytochrome P450 CYP2C9 (359Leu) (P11712 whole entry I359L): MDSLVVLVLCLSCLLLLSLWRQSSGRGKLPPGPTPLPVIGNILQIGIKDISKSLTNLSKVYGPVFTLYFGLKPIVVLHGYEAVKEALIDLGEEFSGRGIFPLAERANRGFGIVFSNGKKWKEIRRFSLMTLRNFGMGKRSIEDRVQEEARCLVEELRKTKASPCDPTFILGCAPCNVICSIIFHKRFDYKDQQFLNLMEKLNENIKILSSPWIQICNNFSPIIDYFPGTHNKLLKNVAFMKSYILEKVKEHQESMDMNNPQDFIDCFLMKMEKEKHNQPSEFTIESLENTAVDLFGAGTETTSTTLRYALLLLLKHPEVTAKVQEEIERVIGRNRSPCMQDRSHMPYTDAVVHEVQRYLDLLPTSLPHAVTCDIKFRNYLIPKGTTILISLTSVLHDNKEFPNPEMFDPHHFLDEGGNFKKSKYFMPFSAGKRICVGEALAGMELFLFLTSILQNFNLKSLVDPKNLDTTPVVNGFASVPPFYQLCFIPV

SMILES: O=c1c(-c2ccc(O)cc2)coc2cc(O)cc(O)c12 [genistein]
- inhibition of 17β-hydroxysteroid dehydrogenase (relationship between solution concentration and absorbance at 450 nm) [1]: the stronger the inhibition of 17β-hydroxysteroid dehydrogenase

SMILES: Nc1ccc(S(=O)(=O)Nc2ccnn2-c2ccccc2)cc1 [sulfaphenazole]
- inhibition of human cytochrome P450 CYP2C9 (359Ile) (concentration vs absorbance at 450 nm) ([2]; 30 μM dibenzylfluorescein, 0-1.2 μM final concentration, FIG. 19): the greater the inhibition of the two types of human cytochrome P450 CYP2C9
- difference between inhibition-dose curves of the two enzyme preparations ([2]; human CYP2C9 (359Ile) versus (359Leu), FIGS. 19 and 20): obvious differences between the sulfaphenazole inhibition-dose curves
- inhibition of human cytochrome P450 CYP2C9 (359Leu) (concentration vs absorbance at 450 nm) [3]: the greater the inhibition of the two types of human cytochrome P450 CYP2C9

SMILES: O=c1cc(-c2ccccc2)oc2c1ccc1ccccc12 [α-naphthoflavone]
- inhibition of cytochrome P450 CYP19 (relationship between solution concentration and absorbance at 450 nm) [4]: the greater the inhibition of cytochrome P450 CYP19
- inhibition of pig cytochrome P450 CYP19 (133Ile) (concentration vs absorbance at 450 nm) ([5]; 62.5 μM testosterone, 0-3.2 μM final concentration, FIG. 15): the greater the inhibition of pig cytochrome P450 CYP19
- difference in degree of inhibition between preparation (133Ile) and preparation (133Met) ([5]; pig CYP19 (133Ile) versus (133Met), FIGS. 15 and 16): the degree of inhibition differed greatly
- inhibition of pig cytochrome P450 CYP19 (133Met) (concentration vs absorbance at 450 nm) [6]: the greater the inhibition of pig cytochrome P450 CYP19
